Earlier results as cited in patent publication US6043276A (Georgetown University School of Medicine, priority 1999, dated 2000).

What was measured:
[1] = test system: integrase protein of HIV-1; details: Fesen et al.; Burke et al.; Mazumder et al.; cited from earlier work
xanthine oxidase = details: Chan et al. 1995; Chang et al. 1994; cited from earlier work
RT for HIV = details: Kreis et al. 1990; cited from earlier work
HIV = details: literature; cited from earlier work
[2] = Lin et al. 1996; cited from earlier work

## O=C(/C=C/c1ccc(O)c(O)c1)OCCc1ccccc1 [CAPE, Caffeic acid phenethyl esters]
[1]
  inhibitory activity on the integrase protein of HIV-1: exert inhibitory activity

## O=C(O)/C=C/c1ccc(O)c(O)c1 [Caffeic acid]
Xanthine oxidase
  xanthine oxidase inhibition: inhibit xanthine oxidase
RT for HIV
  antiviral activity, RT assay for HIV: has antiviral activity

## O=C(/C=C/c1ccc(O)c(O)c1)O[C@H](Cc1ccc(O)c(O)c1)C(=O)O [Rosemarinic acid]
HIV
  anti-HIV activity: possesses anti-HIV activity

## O=C(/C=C/c1ccc(O)c(O)c1/C=C/c1ccc(O)c(O)c1)O[C@H](Cc1ccc(O)c(O)c1)C(=O)O [salvianolic acid A]
[2]
  antioxidant properties: antioxidant properties

## acetylsalvianolic acid
[2]
  antioxidant properties: antioxidant properties
